Our source for the TGI values is PubChem BioAssay (NCI).

Holding throughout (assay): DTP human tumour cell line panel, 48 h
Assay [1] has as its system NCI-H522 lung.
The test system of assay [2] is SF-295 CNS.
Assay [3] deals with CCRF-CEM leukemia.
Assay [4] relates to HCC-2998 colon.
Assay [5] concerns SNB-19 CNS.
Assay [6] deals with KM12 colon.
The subject of assay [7] is OVCAR-5 ovarian.
In assay [8] the test system is MDA-N.
Assay [9] concerns SR leukemia.
The subject of assay [10] is ACHN renal.
The subject of assay [11] is PC-3 prostate.
Assay [12] has as its system NCI/ADR-RES ovarian.
Assay [13] relates to NCI-H23 lung.
Assay [14] concerns MDA-MB-231 breast.
The subject of assay [15] is OVCAR-4 ovarian.
For assay [16], the system named is HL-60(TB) leukemia.
The subject of assay [17] is MALME-3M melanoma.
The test system of assay [18] is MOLT-4 leukemia.
In assay [19] the test system is NCI-H226 lung.
Assay [20] has as its system SK-OV-3 ovarian.

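Cells were grown in 96-well plates and exposed to each compound for 48 hours at five concentrations; endpoints were interpolated linearly between bracketing concentrations, or set to the highest concentration if not reached. TGI: total growth inhibition.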

Take `O=C1c2[nH]c3ccc(Br)cc3c2CCN1Cc1ccc(Cl)cc1`: the TGI (commonly the concentration at which net growth stops) is 37.9 µM in assay [1]; 26.2 µM in assay [2]; over 100 µM in assay [3]; 28.3 µM in assay [4]; 32.7 µM in [5]; 36.1 µM in [6]. For the same molecule, the total growth inhibition concentration (TGI) amounted to 26.2 µM in [7]; 30.7 µM in assay [8]; 44.5 µM in assay [9]; 22.7 µM in [10]; 19.4 µM in assay [11]; 40.6 µM in [12]. Moreover, the TGI stood at 32.3 µM in [13]; 28.7 µM in assay [14]; 34.3 µM in assay [15]; 99.1 µM in assay [16]; 33.7 µM in assay [17].
Take `O=c1[nH]nc(-c2ccccc2)n1-c1ccncc1`: the TGI in [1], in assay [18], in [2], in assay [3], in assay [4] and in assay [5] was over 100 µM in each case. Moreover, the TGI in assay [6], in [7], in assay [19], in assay [8], in assay [9] and in [10] was over 100 µM in each case. For the same molecule, the TGI in assay [11], in assay [12], in [13], in assay [14], in assay [15] and in assay [16] was over 100 µM each time. Further, the TGI in [17] is over 100 µM.
For `CC(=O)c1sc2c(c1OC(=O)c1ccco1)c(=O)n(-c1ccccc1)c(=S)n2-c1ccccc1`, the TGI in assay [1] was 39.7 µM; in assay [20] it was 55.3 µM; in assay [18], 53.8 µM; in assay [2], 49.2 µM; in assay [3] it was 43.5 µM; in assay [5], 88.2 µM. The TGI in assay [6] was 48.5 µM; in assay [19], 16.1 µM; in [8], 82.6 µM; in [9], 72.2 µM; in assay [11], 64.2 µM; in assay [12], 51.2 µM. Besides, the total growth inhibition concentration (TGI) in [13] was 73.8 µM; in [14], 47.1 µM; in assay [15], 95 µM; in assay [16] it was 45 µM; in assay [17] it was 37.9 µM.
Turning to `CCC(C)(C)C1CCC2c3c([nH]c4ccccc34)C3C(=O)N(c4ccc(OC)cc4)C(=O)C3C2C1` (stereo unspecified), the TGI in [1] came out at 20.6 µM; in [20], 77.6 µM; in [18] it was 60.8 µM; in assay [2] it was 64.2 µM; in assay [4], 40.5 µM; in [5], 86.2 µM. The TGI in [6] was found to be 12.2 µM; in assay [7] it was 45.6 µM; in [19] it was 37.3 µM; in assay [8], 68.6 µM; in [9], 75.3 µM; in assay [10] it was 58.6 µM. Also, the TGI is 26.6 µM in assay [11]; 44.4 µM in assay [12]; 35.1 µM in assay [13]; 32.3 µM in assay [14]; over 100 µM in assay [15]; 63 µM in assay [17].
Take `N#CC12CNCC1CN=N2` (stereo unspecified): the TGI in [1], in [18], in assay [2], in assay [3], in assay [4] and in assay [5] was over 100 µM in each case. Besides, the TGI in [6], in assay [7], in assay [19], in [8], in assay [9] and in assay [10] was over 100 µM in each case. Also, the TGI in assay [11], in assay [12], in [13], in [14], in [15] and in assay [16] was over 100 µM each time. Moreover, the TGI in [17] is over 100 µM.
For the molecule `CC(C)(C)OC(=O)CN1C(=O)CC1CC(=O)c1ccccc1` (stereo unspecified), the TGI was found to be 33.7 µM in [1]; 25.3 µM in [18]; 73.8 µM in [2]; 63.2 µM in [4]; 41.9 µM in [5]; 44.4 µM in [6]. In addition, the TGI in [7] worked out at 36.8 µM; in assay [19], 43.5 µM; in [8] it was 42.2 µM; in [9], 19.1 µM; in assay [10], 41.7 µM; in [11] it was 30.9 µM. The TGI in assay [12] is over 100 µM; in assay [13], 36.5 µM; in assay [14], 31.1 µM; in assay [15], over 100 µM; in [16] it was 47.9 µM; in [17] it was 31.9 µM.
`O=C1CCC2(c3ccccc3)Nc3ccncc3N12` (stereo unspecified): the TGI in assay [1], in assay [20], in assay [18], in assay [2], in assay [3] and in assay [5] was over 10 µM each time. In addition, the TGI in assay [6], in assay [7], in assay [19], in [8], in [9] and in assay [10] was over 10 µM in each case. Further, the TGI in [11], in assay [12], in [13], in [14], in [15] and in assay [16] was over 10 µM throughout. For the same molecule, in assay [17], the total growth inhibition concentration (TGI) is over 10 µM.
Take `Nc1nc(Cl)c(CO)c(NCC2(CO)CC(CCc3ccccc3)C2)n1` (stereo unspecified): the TGI is 86.3 µM in [1]; 14.7 µM in assay [18]; over 100 µM in assay [2]; 69.5 µM in assay [3]; over 100 µM in [4]; over 100 µM in assay [5]. For the same molecule, the TGI was 14.2 µM in assay [6]; over 100 µM in assay [7]; 36.3 µM in assay [19]; over 100 µM in [8]; over 100 µM in [9]; over 100 µM in [10]. In addition, the TGI in assay [11] was over 100 µM; in assay [12], 73.8 µM; in [13] it was 37.5 µM; in [14], 39.1 µM; in assay [15] it was 54.9 µM; in assay [16], 28.9 µM. In [17], this molecule came in with a TGI of 42.5 µM.
